Measured values as given in PMC7553946, “Soticlestat, a novel cholesterol 24-hydroxylase inhibitor shows a therapeutic potential for neural hyperexcitation in mice” (Scientific Reports, 2020).

Experiments:
Cyclooxygenase (COX-2) = biological target: T1, Cyclooxygenase (COX-2) (Homo sapiens, UniProt P35354); assay: biochemical; design: enzyme inhibition panel, single concentration; settings: read-out: Inhibition (%)
T1 construct: gene PTGS2
Excerpt: (§1) Soticlestat (Supplementary Fig. S1) was discovered as a result of an iterative medicinal chemistry effort following high-throughput screening of an in vitro enzyme assay (Fig. 1A,B).

MAO A = biological target: T2, MAO A (Homo sapiens, UniProt P21397); assay: biochemical; design: enzyme inhibition panel, single concentration; settings: read-out: Inhibition (%)
T2 construct: gene MAOA
Excerpt: as §1

[1] = biological target: T3, Peptidase, Metalloproteinase, Neutral Endopeptidase (Homo sapiens, UniProt P08473); assay: biochemical; design: enzyme inhibition panel, single concentration; settings: read-out: Inhibition (%)
T3 construct: gene MME
T3 sequence (P08473 whole entry): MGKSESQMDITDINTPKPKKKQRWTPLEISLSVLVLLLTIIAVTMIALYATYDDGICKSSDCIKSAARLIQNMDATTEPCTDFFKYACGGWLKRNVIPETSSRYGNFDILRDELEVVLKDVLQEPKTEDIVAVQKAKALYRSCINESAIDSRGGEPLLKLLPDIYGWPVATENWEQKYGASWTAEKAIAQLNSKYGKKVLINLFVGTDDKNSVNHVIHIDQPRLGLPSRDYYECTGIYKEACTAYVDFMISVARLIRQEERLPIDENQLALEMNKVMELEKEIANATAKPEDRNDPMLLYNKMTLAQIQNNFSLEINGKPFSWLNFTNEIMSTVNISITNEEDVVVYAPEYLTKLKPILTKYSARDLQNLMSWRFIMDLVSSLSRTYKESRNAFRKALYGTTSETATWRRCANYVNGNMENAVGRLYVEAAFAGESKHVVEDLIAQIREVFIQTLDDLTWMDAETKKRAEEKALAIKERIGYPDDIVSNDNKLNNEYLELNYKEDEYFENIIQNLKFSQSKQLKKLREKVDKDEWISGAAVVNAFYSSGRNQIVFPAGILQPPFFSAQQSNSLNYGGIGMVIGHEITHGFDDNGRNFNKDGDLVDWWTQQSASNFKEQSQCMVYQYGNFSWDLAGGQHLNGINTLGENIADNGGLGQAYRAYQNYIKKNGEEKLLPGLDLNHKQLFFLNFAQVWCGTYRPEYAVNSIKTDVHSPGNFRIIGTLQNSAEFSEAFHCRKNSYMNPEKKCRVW
Excerpt: as §1

MAO B = biological target: T4, MAO B (Homo sapiens, UniProt P27338); assay: biochemical; design: enzyme inhibition panel, single concentration; settings: read-out: Inhibition (%)
T4 construct: gene MAOB
Excerpt: as §1

Phosphodiesterase 5 = biological target: T5, Phosphodiesterase 5 (Homo sapiens, UniProt O76074); assay: biochemical; design: enzyme inhibition panel, single concentration; settings: read-out: Inhibition (%)
T5 construct: gene PDE5A
Excerpt: as §1

[2] = biological target: T6, Cholinesterase, Acetyl, ACES (Homo sapiens, UniProt P22303); assay: biochemical; design: enzyme inhibition panel, single concentration; settings: read-out: Inhibition (%)
T6 construct: gene ACHE
Excerpt: as §1

Cyclooxygenase (COX-1) = biological target: T7, Cyclooxygenase (COX-1) (Homo sapiens, UniProt P23219); assay: biochemical; design: enzyme inhibition panel, single concentration; settings: read-out: Inhibition (%)
T7 construct: gene PTGS1
Excerpt: as §1

[3] = biological target: cholesterol 24-hydroxylase (CH24H, CYP46A1) (Homo sapiens, UniProt Q9Y6A2); assay: […]cholesterol 24-hydroxylation assay by TLC with lysate of CH24H-expressing cells; format: biochemical
Opiate κ (OP2, KOP) = biological target: T8, Opiate κ (OP2, KOP) (Homo sapiens, UniProt P41145); assay: biochemical; design: radioligand displacement binding panel of CNS receptors and transporters, single concentration; settings: read-out: Inhibition (%)
T8 construct: gene OPRK1
Excerpt: as §1

Bradykinin B1 = biological target: T9, Bradykinin B1 (Homo sapiens, UniProt P46663); assay: biochemical; design: radioligand displacement binding panel of CNS receptors and transporters, single concentration; settings: read-out: Inhibition (%)
T9 construct: gene BDKRB1
Excerpt: as §1

Histamine H2 = biological target: T10, Histamine H2 (Homo sapiens, UniProt P25021); assay: biochemical; design: radioligand displacement binding panel of CNS receptors and transporters, single concentration; settings: read-out: Inhibition (%)
T10 construct: gene HRH2
Excerpt: as §1

Muscarinic M1 = biological target: T11, Muscarinic M1 (Homo sapiens, UniProt P11229); assay: biochemical; design: radioligand displacement binding panel of CNS receptors and transporters, single concentration; settings: read-out: Inhibition (%)
T11 construct: gene CHRM1
T11 sequence (P11229 whole entry): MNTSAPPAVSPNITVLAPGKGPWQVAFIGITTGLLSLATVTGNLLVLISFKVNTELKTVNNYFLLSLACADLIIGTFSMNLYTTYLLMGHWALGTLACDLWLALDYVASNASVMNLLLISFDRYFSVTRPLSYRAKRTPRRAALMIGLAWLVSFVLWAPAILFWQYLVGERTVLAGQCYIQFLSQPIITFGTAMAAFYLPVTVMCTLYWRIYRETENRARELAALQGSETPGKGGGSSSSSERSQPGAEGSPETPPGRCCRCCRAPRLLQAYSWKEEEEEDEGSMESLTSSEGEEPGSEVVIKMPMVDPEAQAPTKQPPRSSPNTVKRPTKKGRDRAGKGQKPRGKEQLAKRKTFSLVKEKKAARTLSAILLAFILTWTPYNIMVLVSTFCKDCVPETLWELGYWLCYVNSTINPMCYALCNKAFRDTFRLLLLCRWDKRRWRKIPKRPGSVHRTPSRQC
Excerpt: as §1

Cannabinoid CB1 = biological target: T12, Cannabinoid CB1 (Homo sapiens, UniProt P21554); assay: biochemical; design: radioligand displacement binding panel of CNS receptors and transporters, single concentration; settings: read-out: Inhibition (%)
T12 construct: gene CNR1
T12 sequence (P21554 whole entry): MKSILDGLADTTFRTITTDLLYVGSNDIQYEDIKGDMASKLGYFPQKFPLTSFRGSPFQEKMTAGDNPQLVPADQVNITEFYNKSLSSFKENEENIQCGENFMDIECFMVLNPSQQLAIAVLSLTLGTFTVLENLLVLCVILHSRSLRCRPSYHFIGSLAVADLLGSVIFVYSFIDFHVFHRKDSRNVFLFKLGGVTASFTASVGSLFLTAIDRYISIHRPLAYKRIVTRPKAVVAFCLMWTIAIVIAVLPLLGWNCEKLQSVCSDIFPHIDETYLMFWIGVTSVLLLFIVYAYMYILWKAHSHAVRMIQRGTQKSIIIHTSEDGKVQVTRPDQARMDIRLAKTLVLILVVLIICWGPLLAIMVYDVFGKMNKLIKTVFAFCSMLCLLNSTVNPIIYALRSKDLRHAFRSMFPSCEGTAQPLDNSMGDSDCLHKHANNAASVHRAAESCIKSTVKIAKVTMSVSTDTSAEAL
Excerpt: as §1

Adrenergic β1 = biological target: T13, Adrenergic β1 (Homo sapiens, UniProt P08588); assay: biochemical; design: radioligand displacement binding panel of CNS receptors and transporters, single concentration; settings: read-out: Inhibition (%)
T13 construct: gene ADRB1
Excerpt: as §1

GABA B1B = biological target: T14, GABA B1B (Homo sapiens, UniProt Q9UBS5); assay: biochemical; design: radioligand displacement binding panel of CNS receptors and transporters, single concentration; settings: read-out: Inhibition (%)
T14 construct: gene GABBR1; isoform 1B
T14 sequence (Q9UBS5 whole entry, canonical isoform): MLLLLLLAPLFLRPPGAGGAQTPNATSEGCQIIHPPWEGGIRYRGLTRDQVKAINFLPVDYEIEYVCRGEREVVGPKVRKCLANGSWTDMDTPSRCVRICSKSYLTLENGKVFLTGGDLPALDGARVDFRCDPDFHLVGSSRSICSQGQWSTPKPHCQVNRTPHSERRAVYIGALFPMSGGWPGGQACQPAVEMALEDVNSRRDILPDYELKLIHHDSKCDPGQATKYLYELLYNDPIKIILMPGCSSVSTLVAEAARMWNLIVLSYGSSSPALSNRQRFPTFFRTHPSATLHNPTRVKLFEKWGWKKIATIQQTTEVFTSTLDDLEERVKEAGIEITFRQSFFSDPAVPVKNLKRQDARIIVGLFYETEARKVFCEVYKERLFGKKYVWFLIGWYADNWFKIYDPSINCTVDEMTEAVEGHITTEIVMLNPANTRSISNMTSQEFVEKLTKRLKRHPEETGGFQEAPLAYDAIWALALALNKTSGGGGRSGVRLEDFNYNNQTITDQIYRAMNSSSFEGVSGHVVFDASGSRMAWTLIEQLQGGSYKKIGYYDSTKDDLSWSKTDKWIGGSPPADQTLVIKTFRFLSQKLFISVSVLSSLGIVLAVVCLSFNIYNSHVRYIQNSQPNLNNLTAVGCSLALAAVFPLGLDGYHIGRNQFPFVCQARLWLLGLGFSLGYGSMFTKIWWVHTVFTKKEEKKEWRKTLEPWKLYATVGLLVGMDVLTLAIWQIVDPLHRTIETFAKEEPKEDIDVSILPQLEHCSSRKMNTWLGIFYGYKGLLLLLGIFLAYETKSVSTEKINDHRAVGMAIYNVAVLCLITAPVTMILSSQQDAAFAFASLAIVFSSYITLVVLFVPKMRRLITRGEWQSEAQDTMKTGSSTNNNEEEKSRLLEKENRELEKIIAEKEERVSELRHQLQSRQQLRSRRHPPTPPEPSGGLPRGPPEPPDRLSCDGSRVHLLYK
Excerpt: as §1

Dopamine D4.2 = biological target: T15, Dopamine D4.2 (Homo sapiens, UniProt P21917); assay: biochemical; design: radioligand displacement binding panel of CNS receptors and transporters, single concentration; settings: read-out: Inhibition (%)
T15 construct: gene DRD4; D4.2 repeat variant
T15 sequence (P21917 whole entry): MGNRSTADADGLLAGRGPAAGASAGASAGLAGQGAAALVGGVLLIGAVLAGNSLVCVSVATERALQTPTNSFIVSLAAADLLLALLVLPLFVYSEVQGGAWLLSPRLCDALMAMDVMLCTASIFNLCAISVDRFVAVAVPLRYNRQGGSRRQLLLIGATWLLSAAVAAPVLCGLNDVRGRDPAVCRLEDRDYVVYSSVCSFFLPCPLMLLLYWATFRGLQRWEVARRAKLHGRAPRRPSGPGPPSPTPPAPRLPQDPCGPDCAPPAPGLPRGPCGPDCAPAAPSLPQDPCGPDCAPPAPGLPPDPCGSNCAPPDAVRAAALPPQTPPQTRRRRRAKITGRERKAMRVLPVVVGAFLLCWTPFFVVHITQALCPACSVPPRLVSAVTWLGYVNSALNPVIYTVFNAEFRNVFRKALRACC
Excerpt: as §1

Adenosine A2B = biological target: T16, Adenosine A2B (Homo sapiens, UniProt P29275); assay: biochemical; design: radioligand displacement binding panel of CNS receptors and transporters, single concentration; settings: read-out: Inhibition (%)
T16 construct: gene ADORA2B
T16 sequence (P29275 whole entry): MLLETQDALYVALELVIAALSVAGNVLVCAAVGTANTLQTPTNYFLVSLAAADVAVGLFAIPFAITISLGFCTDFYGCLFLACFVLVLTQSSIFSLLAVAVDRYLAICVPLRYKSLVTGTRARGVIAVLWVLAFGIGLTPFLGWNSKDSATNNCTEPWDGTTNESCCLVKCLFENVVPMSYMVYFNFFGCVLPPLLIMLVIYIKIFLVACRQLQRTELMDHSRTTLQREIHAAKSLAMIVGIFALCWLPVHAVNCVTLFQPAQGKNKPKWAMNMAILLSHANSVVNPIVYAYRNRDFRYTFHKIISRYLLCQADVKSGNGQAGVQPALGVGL
Excerpt: as §1

Dopamine D1 = biological target: T17, Dopamine D1 (Homo sapiens, UniProt P21728); assay: biochemical; design: radioligand displacement binding panel of CNS receptors and transporters, single concentration; settings: read-out: Inhibition (%)
T17 construct: gene DRD1
Excerpt: as §1

GABA B1A = biological target: T18, GABA B1A (Homo sapiens, UniProt Q9UBS5); assay: biochemical; design: radioligand displacement binding panel of CNS receptors and transporters, single concentration; settings: read-out: Inhibition (%)
T18 construct: gene GABBR1; isoform 1A
T18 sequence (Q9UBS5 whole entry, canonical isoform): as the sequence (Q9UBS5 whole entry, canonical isoform) above
Excerpt: as §1

Histamine H1 = biological target: T19, Histamine H1 (Homo sapiens, UniProt P35367); assay: biochemical; design: radioligand displacement binding panel of CNS receptors and transporters, single concentration; settings: read-out: Inhibition (%)
T19 construct: gene HRH1
Excerpt: as §1

Vasopressin V1A = biological target: T20, Vasopressin V1A (Homo sapiens, UniProt P37288); assay: biochemical; design: radioligand displacement binding panel of CNS receptors and transporters, single concentration; settings: read-out: Inhibition (%)
T20 construct: gene AVPR1A
T20 sequence (P37288 whole entry): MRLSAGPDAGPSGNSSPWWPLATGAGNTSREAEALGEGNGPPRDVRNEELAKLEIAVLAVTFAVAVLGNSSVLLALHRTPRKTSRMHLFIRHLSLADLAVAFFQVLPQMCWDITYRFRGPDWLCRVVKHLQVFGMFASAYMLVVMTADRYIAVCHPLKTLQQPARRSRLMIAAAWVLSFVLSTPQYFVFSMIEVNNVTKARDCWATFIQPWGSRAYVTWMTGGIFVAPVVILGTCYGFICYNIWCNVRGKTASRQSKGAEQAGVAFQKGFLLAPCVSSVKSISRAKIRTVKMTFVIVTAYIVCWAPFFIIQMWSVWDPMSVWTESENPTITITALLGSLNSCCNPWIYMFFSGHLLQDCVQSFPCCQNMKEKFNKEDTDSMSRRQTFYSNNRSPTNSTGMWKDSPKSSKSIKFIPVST
Excerpt: as §1

Opiate μ (OP3, MOP) = biological target: T21, Opiate μ (OP3, MOP) (Homo sapiens, UniProt P35372); assay: biochemical; design: radioligand displacement binding panel of CNS receptors and transporters, single concentration; settings: read-out: Inhibition (%)
T21 construct: gene OPRM1
Excerpt: as §1

Serotonin transporter = biological target: T22, Serotonin transporter (Homo sapiens, UniProt P31645); assay: biochemical; design: radioligand displacement binding panel of CNS receptors and transporters, single concentration; settings: read-out: Inhibition (%)
T22 construct: gene SLC6A4
Excerpt: as §1

Angiotensin AT2 = biological target: T23, Angiotensin AT2 (Homo sapiens, UniProt P50052); assay: biochemical; design: radioligand displacement binding panel of CNS receptors and transporters, single concentration; settings: read-out: Inhibition (%)
T23 construct: gene AGTR2
T23 sequence (P50052 whole entry): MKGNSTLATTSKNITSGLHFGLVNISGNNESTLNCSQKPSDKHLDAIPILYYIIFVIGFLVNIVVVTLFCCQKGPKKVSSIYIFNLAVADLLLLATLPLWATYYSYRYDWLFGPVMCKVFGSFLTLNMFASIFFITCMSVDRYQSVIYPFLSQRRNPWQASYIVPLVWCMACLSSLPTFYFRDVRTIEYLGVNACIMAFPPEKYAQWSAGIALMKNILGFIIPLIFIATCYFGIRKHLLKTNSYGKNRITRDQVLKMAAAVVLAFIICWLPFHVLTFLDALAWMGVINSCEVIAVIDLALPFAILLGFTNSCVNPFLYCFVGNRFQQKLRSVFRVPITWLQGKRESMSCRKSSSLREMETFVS
Excerpt: as §1

Dopamine D3 = biological target: T24, Dopamine D3 (Homo sapiens, UniProt P35462); assay: biochemical; design: radioligand displacement binding panel of CNS receptors and transporters, single concentration; settings: read-out: Inhibition (%)
T24 construct: gene DRD3
Excerpt: as §1

[4] = biological target: T25, Norepinephrine transporter (Homo sapiens, UniProt P23975); assay: biochemical; design: radioligand displacement binding panel of CNS receptors and transporters, single concentration; settings: read-out: Inhibition (%)
T25 construct: gene SLC6A2
Excerpt: as §1

Dopamine transporter = biological target: T26, Dopamine transporter (Homo sapiens, UniProt Q01959); assay: biochemical; design: radioligand displacement binding panel of CNS receptors and transporters, single concentration; settings: read-out: Inhibition (%)
T26 construct: gene SLC6A3
Excerpt: as §1

Adrenergic β3 = biological target: T27, Adrenergic β3 (Homo sapiens, UniProt P13945); assay: biochemical; design: radioligand displacement binding panel of CNS receptors and transporters, single concentration; settings: read-out: Inhibition (%)
T27 construct: gene ADRB3
Excerpt: as §1

Muscarinic M3 = biological target: T28, Muscarinic M3 (Homo sapiens, UniProt P20309); assay: biochemical; design: radioligand displacement binding panel of CNS receptors and transporters, single concentration; settings: read-out: Inhibition (%)
T28 construct: gene CHRM3
Excerpt: as §1

Muscarinic M2 = biological target: T29, Muscarinic M2 (Homo sapiens, UniProt P08172); assay: biochemical; design: radioligand displacement binding panel of CNS receptors and transporters, single concentration; settings: read-out: Inhibition (%)
T29 construct: gene CHRM2
Excerpt: as §1

Adrenergic β2 = biological target: T30, Adrenergic β2 (Homo sapiens, UniProt P07550); assay: biochemical; design: radioligand displacement binding panel of CNS receptors and transporters, single concentration; settings: read-out: Inhibition (%)
T30 construct: gene ADRB2
Excerpt: as §1

5-HT2B = biological target: T31, 5-HT2B (Homo sapiens, UniProt P41595); assay: biochemical; design: radioligand displacement binding panel of CNS receptors and transporters, single concentration; settings: read-out: Inhibition (%)
T31 construct: gene HTR2B
Excerpt: as §1

Dopamine D2L = biological target: T32, Dopamine D2L (Homo sapiens, UniProt P14416); assay: biochemical; design: radioligand displacement binding panel of CNS receptors and transporters, single concentration; settings: read-out: Inhibition (%)
T32 construct: gene DRD2; long isoform
Excerpt: as §1

T1 sequence (P35354 whole entry): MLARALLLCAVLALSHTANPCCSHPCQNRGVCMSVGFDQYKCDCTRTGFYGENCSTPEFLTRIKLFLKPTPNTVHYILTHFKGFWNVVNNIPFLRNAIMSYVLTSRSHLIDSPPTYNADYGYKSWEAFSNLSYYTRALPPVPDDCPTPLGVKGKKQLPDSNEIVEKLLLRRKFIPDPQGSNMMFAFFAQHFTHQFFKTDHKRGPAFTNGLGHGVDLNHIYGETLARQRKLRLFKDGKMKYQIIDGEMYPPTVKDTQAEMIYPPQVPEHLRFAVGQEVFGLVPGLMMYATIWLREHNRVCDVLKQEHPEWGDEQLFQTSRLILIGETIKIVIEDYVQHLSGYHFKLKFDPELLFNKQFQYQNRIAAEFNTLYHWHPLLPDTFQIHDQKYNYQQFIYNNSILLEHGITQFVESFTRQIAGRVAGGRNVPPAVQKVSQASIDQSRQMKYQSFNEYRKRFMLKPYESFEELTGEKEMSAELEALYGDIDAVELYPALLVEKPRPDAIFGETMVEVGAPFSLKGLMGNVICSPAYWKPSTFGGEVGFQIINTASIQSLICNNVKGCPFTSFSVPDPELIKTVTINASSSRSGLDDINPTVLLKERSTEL

O=C(c1cccnc1-c1ccncc1)N1CCC(O)(Cc2ccccc2)CC1 [soticlestat, (4-benzyl-4-hydroxypiperidin-1-yl)(2,4′-bipyridin-3-yl) methanone]
inhibition at 10 µM (Cyclooxygenase (COX-2)): 4% | inhibition at 10 µM (MAO A): 1% | inhibition at 10 µM [1]: -4% | inhibition at 10 µM (MAO B): 0% | inhibition at 10 µM (Phosphodiesterase 5): -2% | inhibition at 10 µM [2]: 0% | inhibition at 10 µM (Cyclooxygenase (COX-1)): -14% | IC50 [3]: 4.5 nM | inhibition at 10 µM (Opiate κ (OP2, KOP)): -1% | inhibition at 10 µM (Bradykinin B1): 13% | inhibition at 10 µM (Histamine H2): 5% | inhibition at 10 µM (Muscarinic M1): 7% | inhibition at 10 µM (Cannabinoid CB1): -5% | inhibition at 10 µM (Adrenergic β1): -4% | inhibition at 10 µM (GABA B1B): 8% | inhibition at 10 µM (Dopamine D4.2): 0% | inhibition at 10 µM (Adenosine A2B): 20% | inhibition at 10 µM (Dopamine D1): 5% | inhibition at 10 µM (GABA B1A): 6% | inhibition at 10 µM (Histamine H1): -2% | inhibition at 10 µM (Vasopressin V1A): -11% | inhibition at 10 µM (Opiate μ (OP3, MOP)): -1% | inhibition at 10 µM (Serotonin transporter): 6% | inhibition at 10 µM (Angiotensin AT2): -10% | inhibition at 10 µM (Dopamine D3): 5% | inhibition at 10 µM [4]: -1% | inhibition at 10 µM (Dopamine transporter): 0% | inhibition at 10 µM (Adrenergic β3): -7% | inhibition at 10 µM (Muscarinic M3): 12% | inhibition at 10 µM (Muscarinic M2): 1% | inhibition at 10 µM (Adrenergic β2): 6% | inhibition at 10 µM (5-HT2B): 5% | inhibition at 10 µM (Dopamine D2L): 15%
